The assay addresses T1, HIV integrase (Human immunodeficiency virus type 1 group M subtype B, UniProt P12497, F1332H).
T1 construct: HIV integrase full length gene; made in house; host or cells: Escherichia coli BL21(DE3), plasmid pET21a-INH
In words: Determination of enzyme (HIV integrase) inhibitory activity. The class given is biochemical. The settings on record: recombinant HIV integrase (F185H), strand transfer ELISA, absorbance at 450 nm. Summed up:
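Full-length integrase with F185H, expressed in E. coli and purified, was reacted for 60 min at 37 °C with compound and biotinylated donor DNA bound to streptavidin plates. Target DNA was added for 10 min, then anti-digoxigenin-peroxidase detection at A450; IC50 from % inhibition versus enzyme-free blank.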

Each structure is given as a SMILES string. pIC50: −log10 of the molar value. Where a name gives a salt, the structure may show the parent alone.

Take `O=C1c2c(O)c(=O)ccn2CCN1Cc1ccccc1Cl` [Example 65, 2-(2-chlorobenzyl)-9-hydroxy-3,4-dihydro-2H-pyrido[1,2-a]pyrazine-1,8-dione]: the pIC50 is 6.00 to 7.00.
Regarding `O=C(Cc1ccncc1)Nc1cn2ccn(Cc3cccc(Cl)c3)c(=O)c2c(O)c1=O` [Example 401, N-[2-(3-chlorobenzyl)-9-hydroxy-1,8-dioxo-1,8-dihydro-2H-pyrido[1,2-a]pyrazin-7-yl]-2-(pyridin-4-yl)acetamide hydrochloride], the negative logarithm of the IC50 (pIC50) is 7.00 to 8.00.
`O=C1c2c(O)c(=O)ccn2CCN1Cc1ccc(Cl)c(F)c1` [Example 57, 2-(4-chloro-3-fluorobenzyl)-9-hydroxy-3,4-dihydro-2H-pyrido[1,2-a]pyrazine-1,8-dione]: the pIC50 was 7.00 to 8.00.
Under `O=c1c(-c2ccccc2O)cn2ccn(Cc3cccc(Cl)c3)c(=O)c2c1O` [Example 141, 2-(3-chlorobenzyl)-9-hydroxy-7-(2-hydroxyphenyl)-2H-pyrido[1,2-a]pyrazine-1,8-dione] stands > 8.00; under `Cn1cc2c(c(O)c1=O)C(=O)N(Cc1cccc(Cl)c1)CC2` [Example 106, 2-(3-chlorobenzyl)-8-hydroxy-6-methyl-2,3,4,6-tetrahydro-2,6-naphthyridine-1,7-dione], 7.00 to 8.00; under `CN(C)C(=O)c1cc(=O)c(O)c2n1CCN(Cc1ccc(Cl)c(Cl)c1)C2=O` [Example 24, N,N-dimethyl-2-(3,4-dichlorobenzyl)-9-hydroxy-1,8-dioxo-1,3,4,8-tetrahydro-2H-pyrido[1,2-a]pyrazine-6-carboxamide], 7.00 to 8.00.
Take `O=C1c2c(O)c(=O)c(-c3cccnn3)cn2CCN1Cc1cccc(Cl)c1` [Example 290, 2-(3-chlorobenzyl)-9-hydroxy-7-(pyridazin-3-yl)-3,4-dihydro-2H-pyrido[1,2-a]pyrazine-1,8-dione hydrochloride]: the negative logarithm of the IC50 (pIC50) was 7.00 to 8.00.
Take `O=c1c(O)c2c(=O)n(Cc3cccc(Cl)c3)ccn2c2ccccc12` [Example 99, 3-(3-chlorobenzyl)-5-hydroxy-3H-pyrazino[1,2-a]quinoline-4,6-dione hydrochloride]: the pIC50 is 7.00 to 8.00.
With `CC(C)(C)C(=O)c1cn2c(c(O)c1=O)C(=O)N(Cc1ccc(F)cc1)CC2` [Example 386, 7-(2,2-dimethylpropionyl)-2-(4-fluorobenzyl)-9-hydroxy-3,4-dihydro-2H-pyrido[1,2-a]pyrazine-1,8-dione] the figure was 7.00 to 8.00; with `O=C1c2c(O)c(=O)c(-c3nccs3)cn2CCN1Cc1ccc2ccccc2c1` [Example 311, 9-hydroxy-2-(naphthalen-2-ylmethyl)-7-(thiazol-2-yl)-3,4-dihydro-2H-pyrido[1,2-a]pyrazine-1,8-dione], > 8.00; with `O=C(c1cn2ccn(Cc3cccc(Cl)c3)c(=O)c2c(O)c1=O)N1CCCC1` [Example 184, 2-(3-chlorobenzyl)-9-hydroxy-7-(pyrrolidine-1-carbonyl)-2H-pyrido[1,2-a]pyrazine-1,8-dione], 7.00 to 8.00.
On to `O=c1ncn2ccn(Cc3ccc(Cl)c(Cl)c3)c(=O)c2c1O` [Example 12, 2-(3,4-dichlorobenzyl)-9-hydroxy-2H-pyrazino[1,2-a]pyrimidine-1,8-dione hydrochloride], for which the negative logarithm of the IC50 (pIC50) is 7.00 to 8.00.
With `O=C(Nc1cn2ccn(Cc3cccc(Cl)c3)c(=O)c2c(O)c1=O)c1ccncc1` [Example 287, N-[2-(3-chlorobenzyl)-9-hydroxy-1,8-dioxo-1,8-dihydro-2H-pyrido[1,2-a]pyrazin-7-yl]isonicotinamide trifluoroacetate] the figure was > 8.00; with `CC(C)(C)C(=O)c1cc(=O)c(O)c2n1CCN(Cc1ccc(Cl)c(Cl)c1)C2=O` [Example 7, 2-(3,4-dichlorobenzyl)-6-(2,2-dimethylpropionyl)-9-hydroxy-3,4-dihydro-2H-pyrido[1,2-a]pyrazine-1,8-dione], > 8.00; with `COc1c(Cl)cccc1Cn1ccn2ccc(=O)c(O)c2c1=O` [Example 168, 2-(3-chloro-2-methoxybenzyl)-9-hydroxy-2H-pyrido[1,2-a]pyrazine-1,8-dione hydrochloride], 7.00 to 8.00.
For the compound `Cc1csc(-c2cn3c(c(O)c2=O)C(=O)N(Cc2cccc(Cl)c2)CC3)n1` [Example 255, 2-(3-chlorobenzyl)-9-hydroxy-7-(4-methylthiazol-2-yl)-3,4-dihydro-2H-pyrido[1,2-a]pyrazine-1,8-dione], the pIC50 is > 8.00.
Under `O=c1c(-c2ccccc2)cn2c(CC3CCCCC3)cn(Cc3cccc(Cl)c3)c(=O)c2c1O` [Example 119, 2-(3-chlorobenzyl)-4-cyclohexylmethyl-9-hydroxy-7-phenyl-2H-pyrido[1,2-a]pyrazine-1,8-dione hydrochloride] stands 6.00 to 7.00; under `O=C1c2c(O)c(=O)c(-c3nccs3)cn2CCN1CCCc1cccc(Cl)c1F` [Example 312, 2-[3-(3-chloro-2-fluorophenyl)propyl]-9-hydroxy-7-(thiazol-2-yl)-3,4-dihydro-2H-pyrido[1,2-a]pyrazine-1,8-dione], 7.00 to 8.00; under `CNC(=O)c1cn2c(c(O)c1=O)C(=O)N(Cc1ccc(F)c(F)c1)CC2` [Example 388, N-methyl-2-(3,4-difluorobenzyl)-9-hydroxy-1,8-dioxo-1,3,4,8-tetrahydro-2H-pyrido[1,2-a]pyrazine-7-carboxamide], 6.00 to 7.00.
Take `CCCCCN1CCn2cc(-c3nccs3)c(=O)c(O)c2C1=O` [Example 339, 9-hydroxy-2-pentyl-7-(thiazol-2-yl)-3,4-dihydro-2H-pyrido[1,2-a]pyrazine-1,8-dione hydrochloride]: the pIC50 is 6.00 to 7.00.
With `O=C(Nc1cn2ccn(Cc3cccc(Cl)c3)c(=O)c2c(O)c1=O)C1CCCC1` [Example 274, N-[2-(3-chlorobenzyl)-9-hydroxy-1,8-dioxo-1,8-dihydro-2H-pyrido[1,2-a]pyrazin-7-yl)cyclopentanecarboxamide] the figure was 7.00 to 8.00.
As to `O=C1c2c(O)c(=O)ccn2C(CO)CN1Cc1ccc(Cl)c(Cl)c1` (centres unmarked) [Example 28, 2-(3,4-dichlorobenzyl)-9-hydroxy-4-hydroxymethyl-3,4-dihydro-2H-pyrido[1,2-a]pyrazine-1,8-dione], the negative logarithm of the IC50 (pIC50) was 7.00 to 8.00.
Under `O=C1c2c(O)c(=O)ccn2CCN1Cc1ccc(F)c(Cl)c1` [Example 64, 2-(3-chloro-4-fluorobenzyl)-9-hydroxy-3,4-dihydro-2H-pyrido[1,2-a]pyrazine-1,8-dione] stands 7.00 to 8.00.
Under `CC1CN(Cc2ccc(Cl)c(Cl)c2)C(=O)c2c(O)c(=O)ccn21` (centres unmarked) [Example 13, 2-(3,4-dichlorobenzyl)-9-hydroxy-4-methyl-3,4-dihydro-2H-pyrido[1,2-a]pyrazine-1,8-dione] stands 7.00 to 8.00; under `O=c1c(Cc2ccccc2)cn2ccn(Cc3cccc(Cl)c3)c(=O)c2c1O` [Example 140, 7-benzyl-2-(3-chlorobenzyl)-9-hydroxy-2H-pyrido[1,2-a]pyrazine-1,8-dione hydrochloride], 7.00 to 8.00.
Under `CCC(=O)c1cn2ccn(Cc3cccc(Cl)c3)c(=O)c2c(O)c1=O` [Example 205, 2-(3-chlorobenzyl)-9-hydroxy-7-propionyl-2H-pyrido[1,2-a]pyrazine-1,8-dione hydrochloride] stands > 8.00.
Turning to `O=C1CCN(C(=O)c2cn3ccn(Cc4cccc(Cl)c4)c(=O)c3c(O)c2=O)C1` [Example 201, 2-(3-chlorobenzyl)-9-hydroxy-7-(3-oxopyrrolidine-1-carbonyl)-2H-pyrido[1,2-a]pyrazine-1,8-dione], the negative-log IC50 (pIC50) was 7.00 to 8.00.
Under `CC(=O)c1cn2ccn(Cc3ccc(F)c(Cl)c3)c(=O)c2c(O)c1=O` [Example 244, 7-acetyl-2-(3-chloro-4-fluorobenzyl)-9-hydroxy-2H-pyrido[1,2-a]pyrazine-1,8-dione hydrochloride] stands > 8.00.
With `O=C(NCc1ccncc1)c1cn2ccn(Cc3cccc(Cl)c3)c(=O)c2c(O)c1=O` [Example 213, N-(pyridin-4-ylmethyl)-2-(3-chlorobenzyl)-9-hydroxy-1,8-dioxo-1,8-dihydro-2H-pyrido[1,2-a]pyrazine-7-carboxamide] the figure was 7.00 to 8.00; with `O=C1c2c(O)c(=O)c(-c3cnccn3)cn2CCN1Cc1ccc(F)cc1` [Example 417, 2-(4-fluorobenzyl)-9-hydroxy-7-(pyrazin-2-yl)-3,4-dihydro-2H-pyrido[1,2-a]pyrazine-1,8-dione hydrochloride], 7.00 to 8.00.
In the case of `O=c1c(-c2ccncn2)cn2ccn(Cc3ccc(Cl)cc3)c(=O)c2c1O` [Example 399, 2-(4-chlorobenzyl)-9-hydroxy-7-(pyrimidin-4-yl)-2H-pyrido[1,2-a]pyrazine-1,8-dione hydrochloride], the pIC50 is > 8.00.
Under `Cn1nc2c(c(O)c1=O)C(=O)N(Cc1cccc(Cl)c1)CC2` [Example 123, 6-(3-chlorobenzyl)-4-hydroxy-2-methyl-2,6,7,8-tetrahydropyrido[4,3-c]pyridazine-3,5-dione] stands 6.00 to 7.00.
With `CC1(C)Cn2ccc(=O)c(O)c2C(=O)N1Cc1ccc(Cl)c(Cl)c1` [Example 18, 2-(3,4-dichlorobenzyl)-9-hydroxy-3,3-dimethyl-3,4-dihydro-2H-pyrido[1,2-a]pyrazine-1,8-dione] the figure was 7.00 to 8.00; with `COC(=O)c1cc(=O)c(O)c2n1CCN(Cc1ccc(Cl)c(Cl)c1)C2=O` [Example 34, methyl 2-(3,4-dichlorobenzyl)-9-hydroxy-1,8-dioxo-1,3,4,8-tetrahydro-2H-pyrido[1,2-a]pyrazine-6-carboxylate], 7.00 to 8.00; with `Cn1cc2c(c(O)c1=O)C(=O)N(CCCc1c(F)cccc1Cl)CC2` [Example 122, 2-[3-(2-chloro-6-fluorophenyl)propyl]-8-hydroxy-6-methyl-2,3,4,6-tetrahydro-2,6-naphthyridine-1,7-dione], > 8.00.

A word on the pIC50: it is −log10 of the IC50, conventionally taken in molar units.

The values are drawn from US7211572B2 (Japan Tobacco Inc., priority 2003, dated 2007).
